“Also recorded” adds a separate entry of the source.
Key:
male Sprague-Dawley rats = experiment: Intracranial self-stimulation (ICSS), frequency-rate procedure
[1] = tested on: isolated rabbit Purkinje fibers; experiment: Action potential duration in rabbit cardiac Purkinje fibers
Protocol: The in vitro effect of 18-MC on the cardiac action potential was evaluated in isolated rabbit Purkinje fibers (FIG. 13). […] Fibers with resting potentials more negative than −80 mV and normal action potential morphology (APD90≥150 ms) were used in the study. Fibers were stimulated continuously at BCL of 1 second for at least 5 minutes. At the end of this period, baseline control APD rate dependence was measured using stimulus pulse trains consisting of approximately 50 pulses at BCL of 1 and 0.5 seconds. After returning to BCL of 1 second, 18-MC (or dl-sotalol) at the lowest concentration was applied for at least 20 minutes to allow equilibration, and the stimulus trains repeated. […] The average responses from the last five recorded action potentials from each stimulus train were analyzed for each test condition.
Electrophysiological recordings were performed with four nominal concentrations of 18-MC (0.3, 1, 3, and 10 μM) added sequentially to four preparations at two stimulus intervals (basic cycle lengths of 1 s and 0.5 s). The effects of 18-MC on action potential parameters were compared to time-matched vehicle control sequences.

Mu opioid receptor = Mu opioid receptor (Homo sapiens, UniProt P35372); experiment: In vitro radio-ligand assay; format: binding; conditions: 10 μM
Protocol: (§1) The binding potential of 18-MC with 64 neurotransmitter-related binding sites was evaluated (TABLE 2).

[2] = tested on: adrenergic alpha-1 receptor; experiment: In vitro radio-ligand assay; format: binding; conditions: 10 μM
Protocol: as §1

sodium site 2 channel = experiment: In vitro radio-ligand assay; format: binding; conditions: 10 μM
Protocol: as §1

[3] = Pre-clinical pharmacokinetics, all species tested; format: in vivo
Protocol: In all the species tested in pre-clinical studies, 18-MC is rapidly absorbed following oral administration with Tmax occurring in less than 0.5 hours following oral administration. After oral administration, the elimination of 18-MC is multi-compartmental. In plasma, 18-MC is highly protein bound (92% to 98%). 18-MC is also rapidly and extensively metabolized, presumably by first pass metabolism. At least […] different metabolites have been detected both in vitro and in vivo, further described below (M1-M9, P1-P3). The major metabolites (those with exposure greater than 10% of the total drug related material) appear to change with the dose and duration of dosing. Major metabolites include M2, M4, M5, M8, M9 and P2 depending on the animal species tested, and the dose and duration of dosing.
18-MC is rapidly absorbed and distributed into the brain and fat tissues in rats dosed with 40 mg/kg p.o. or i.p. The estimated volume of distribution is 8 L/kg. 18-MC levels in fat were 4.2 μM and 2.5 μM at 2 hours and 24 hours, respectively. […] On oral administration, it appears that the major metabolites are either M4 or M5, depending on the animal species tested. M4 and M5 are the primary circulating drug species because they are present at proportions greater than 18-MC. […] In the animal species tested its half-life is less than 2 hours at lower doses. […]

Mu opioid receptor, sequence (P35372 whole entry, species assumed): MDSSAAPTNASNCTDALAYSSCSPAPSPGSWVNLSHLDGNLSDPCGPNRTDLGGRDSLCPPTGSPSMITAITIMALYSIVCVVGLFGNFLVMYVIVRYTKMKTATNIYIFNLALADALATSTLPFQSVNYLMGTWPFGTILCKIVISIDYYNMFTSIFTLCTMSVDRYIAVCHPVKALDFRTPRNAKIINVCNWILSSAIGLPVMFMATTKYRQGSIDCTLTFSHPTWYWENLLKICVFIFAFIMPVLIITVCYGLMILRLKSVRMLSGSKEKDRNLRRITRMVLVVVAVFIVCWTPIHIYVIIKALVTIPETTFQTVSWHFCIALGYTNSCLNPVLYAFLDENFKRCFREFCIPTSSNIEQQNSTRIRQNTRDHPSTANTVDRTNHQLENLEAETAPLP

Structure (SMILES) | M50, Test, mean (SEM) (male Sprague-Dawley rats; 10 mg/kg i.p.) | Threshold (T0), Test, mean (SEM) (male Sprague-Dawley rats; 10 mg/kg i.p.) | M50, Test, mean (SEM) (male Sprague-Dawley rats; 40 mg/kg i.p.) | Threshold (T0), Test, mean (SEM) (male Sprague-Dawley rats; 40 mg/kg i.p.) | M50, Test, mean (SEM) (male Sprague-Dawley rats; 56 mg/kg i.p.) | Threshold (T0), Test, mean (SEM) (male Sprague-Dawley rats; 56 mg/kg i.p.) | effect on ICSS frequency-rate curves, M50 and threshold (T0) (male Sprague-Dawley rats; 10, 40, 56 mg/kg i.p., 45 minutes before test session, hydrochloride) | APD60 ([1]; 3 μM, 1 second BCL) | APD60 ([1]; 10 μM, 0.5 and 1 s BCL) | resting membrane potential, action potential amplitude, Vmax ([1]; any concentration tested, two stimulus intervals) | binding (Mu opioid receptor) | binding [2] | binding (sodium site 2 channel) | half-life ([3]; animal species tested, lower doses, oral) | Tmax ([3]; oral administration, all the species tested)
COCCC1CC2CN3CCc4c([nH]c5ccccc45)C(C(=O)OC)(C2)C13.Cl (stereo not drawn) [18-MC HCl, 18-Methoxycoronaridine hydrochloride] | 1.94 (0.02) log/Hz | 1.80 (0.03) log/Hz | 1.95 (0.02) log/Hz | 1.85 (0.03) log/Hz | 1.95 (0.02) log/Hz | 1.85 (0.02) log/Hz | did not affect; also recorded: no main effect | – | – | – | – | – | – | – | –
COCC[C@H]1CC2CN3CCc4c([nH]c5ccccc45)[C@](C(=O)OC)(C2)[C@H]13 [18-MC, 18-methoxycoronaridine] | – | – | – | – | – | – | – | statistically significant (p<0.05) shortening | statistically significant (P<0.05) shortening | did not induce significant changes | binding was seen | binding was seen | binding was seen | less than 2 hours | less than 0.5 hours

— patent US20230201217A1 (priority 2019, published 2023)
